{"source": "patent US7465556B2", "about": "“Method of immunoassay tartrate resistant acid phosphatase 5b and kit to be used therein” (Nitto Boseki Co., Ltd., priority 2003, dated 2008)", "key": {"TRACP 5b [1]": {"test_system": "TRACP 5b", "assay": "Enzymatic activity of TRACP 5b bound to immobilized anti-TRACP 5b antibody plate, end-point absorbance", "format": "biochemical, human", "method": "(§1) The pH of a buffer solution containing a substrate CNPP was varied from 5.6 to 6.8 and the activity of TRACP 5b and TRACP 5a for this substrate was assayed. This substrate buffer solution had the following composition: CNPP 5 mM, Mes 0.1 M and sodium tartrate 40 mM. Its pH was adjusted to values varying from 5.6 to 6.8 by steps of 0.2. TRACP 5b and TRACP 5a used as samples were prepared by separating human serum by the use of a Heparin column and concentrating a fraction corresponding to a peak due to each of TRACP 5a and TRACP 5b. As TRACP 5a, there was used a sample having such a concentration that its absorbance was 0.8 at pH 5.6 (the optimum for TRACP 5a). As TRACP 5b, there was used a sample having such a concentration that its absorbance was 0.8 at pH 6.4 (the optimum for TRACP 5b). As to a method for the assay, a plate having an anti-TRACP 5b antibody Trk27 immobilized thereon was used and 100 μl of each sample was added to each well and stirred with shaking at room temperature for 1 hour. Then, the reaction solution was discarded and each well was washed three times with 200 μl of Tris buffer containing 0.05% Tween 20. Thereafter, 100 μl of the substrate buffer solution was added to each well and shaken for 30 seconds, followed by incubation in an incubator at 37° C. for 1 hour. Then, 50 μl of 0.2N NaOH was added to each well to terminate the enzyme reaction and the absorbance of the reaction solution was measured with a microtiter plate reader. Under such conditions, the optimum pH for TRACP 5b was about 6.4 and that for TRACP 5a was 5.6.\n(§2) Absorbance values due to the reaction of a buffer solution containing a substrate CNPP with each of TRACP 5a and TRACP 5b at pHs 6.2, 6.4, 6.6 and 6.8 were compared with results obtained in a comparative example using a buffer solution (pH 6.1) containing, as a substrate, PNPP that is considered suitable for the assay of TRACP 5b. According to the method disclosed in Japanese Patent Application Kohyo No. 2002-510050, the composition of this PNPP substrate buffer solution was as follows: PNPP 8 mM, sodium acetate 0.1M, sodium tartrate 40 mM, pH 6.1. As a sample of TRACP 5b, the same sample as in Example 1 was used. As a sample of TRACP 5a, a sample was used which had been prepared so that in the comparative example (PNPP was used at pH 6.1), a value for TRACP 5a might be one-tenth that for TRACP 5b according to the data disclosed in Japanese Patent Application Kohyo No. 2002-510050. The same assay procedure as in Example 1 was carried out and absorbance was used as an indication of the enzymatic activity."}, "TRACP 5a [2]": {"molecular_target": "T1, TRACP 5a (Homo sapiens, UniProt P13686)", "T1 construct": "TRACP 5a derived from human serum and eluted from a HiTrap Heparin HP column; from tissue; host or cells: human serum, heparin column fraction", "T1 sequence (P13686 22-325)": "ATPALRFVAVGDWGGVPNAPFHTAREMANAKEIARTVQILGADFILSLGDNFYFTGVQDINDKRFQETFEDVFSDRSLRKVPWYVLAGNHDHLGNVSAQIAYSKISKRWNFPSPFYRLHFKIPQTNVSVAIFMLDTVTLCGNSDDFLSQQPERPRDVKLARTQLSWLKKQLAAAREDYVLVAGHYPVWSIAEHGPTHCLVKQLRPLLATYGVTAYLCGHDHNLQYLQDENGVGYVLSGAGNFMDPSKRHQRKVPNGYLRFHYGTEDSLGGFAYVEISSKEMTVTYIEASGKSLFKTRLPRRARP", "assay": "Enzymatic activity of TRACP 5a bound to immobilized anti-TRACP 5b antibody plate, end-point absorbance", "format": "biochemical", "method": "as §1, §2"}, "TRACP 5b [3]": {"test_system": "TRACP 5b", "assay": "Enzymatic activity of TRACP 5b bound to immobilized anti-TRACP 5b antibody plate, end-point absorbance", "format": "biochemical, human", "details": "pH 6.9"}, "TRACP 5a [4]": {"molecular_target": "T1, TRACP 5a", "details": "pH 5.2; according to Clin. Chem., 47(1), 74-80; cited from earlier work"}, "TRACP 5b [5]": {"molecular_target": "T2, TRACP 5b (Homo sapiens, UniProt P13686)", "T2 sequence (P13686 22-325)": "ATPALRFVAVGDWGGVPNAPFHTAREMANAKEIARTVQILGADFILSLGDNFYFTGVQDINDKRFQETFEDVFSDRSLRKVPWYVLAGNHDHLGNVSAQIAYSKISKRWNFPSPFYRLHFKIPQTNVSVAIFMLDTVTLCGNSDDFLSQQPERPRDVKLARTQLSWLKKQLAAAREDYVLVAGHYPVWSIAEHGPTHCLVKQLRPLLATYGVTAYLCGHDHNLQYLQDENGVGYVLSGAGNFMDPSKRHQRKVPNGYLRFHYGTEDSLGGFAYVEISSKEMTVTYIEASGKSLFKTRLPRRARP", "details": "pH 5.8; according to Clin. Chem., 47(1), 74-80; cited from earlier work"}, "[6]": {"substrate": "O=[N+]([O-])c1ccc(OP(=O)(O)O)c(Cl)c1", "assay": "Km measurement of substrate with TRACP 5b", "format": "biochemical, human", "details": "other: pH 6.4", "method": "(§3) In order to investigate the difference between TRACP 5b and TRACP 5a in reactivity with 2-chloro-4-nitrophenylphosphoric acid (CNPP), Km for each of them was measured.\n(§4) That is, for the assay of TRACP 5b, CNPP used in the present invention is more advantageous than PNPP from the viewpoint of affinity and specificity."}, "[7]": {"substrate": "O=[N+]([O-])c1ccc(OP(=O)(O)O)c(Cl)c1", "assay": "Km measurement of substrate with TRACP 5a", "format": "biochemical, human", "details": "other: pH 5.6", "method": "as §3, §4"}, "[8]": {"details": "pH 6.1, PNPP 8 mM, sodium acetate 0.1M, sodium tartrate 40 mM"}}}
{"molecule": "O=[N+]([O-])c1ccc(OP(=O)(O)O)c(Cl)c1", "note": "[CNPP, 2-chloro-4-nitrophenylphosphoric acid]", "values": [{"measurement": "TRACP 5b/5a ratio", "setting": "TRACP 5b [1]; pH 6.2", "value": 13}, {"measurement": "absorbance (enzymatic activity), sample TRACP 5b", "setting": "TRACP 5b [1]; pH 6.2", "value": 0.802}, {"measurement": "TRACP 5b/5a ratio", "setting": "TRACP 5b [1]; pH 6.4", "value": 17}, {"measurement": "absorbance (enzymatic activity), sample TRACP 5b", "setting": "TRACP 5b [1]; pH 6.4", "value": 0.811}, {"measurement": "TRACP 5b/5a ratio", "setting": "TRACP 5b [1]; pH 6.6", "value": 18}, {"measurement": "absorbance (enzymatic activity), sample TRACP 5b", "setting": "TRACP 5b [1]; pH 6.6", "value": 0.674}, {"measurement": "optimum pH for TRACP 5a", "setting": "TRACP 5a [2]; CNPP 5 mM, Mes 0.1 M, sodium tartrate 40 mM, pH 5.6 to 6.8, 37° C. 1 hour", "value": 5.6}, {"measurement": "absorbance (enzymatic activity), sample TRACP 5a", "setting": "TRACP 5a [2]; pH 6.2", "value": 0.062}, {"measurement": "absorbance (enzymatic activity), sample TRACP 5a", "setting": "TRACP 5a [2]; pH 6.4", "value": 0.047}, {"measurement": "absorbance (enzymatic activity), sample TRACP 5a", "setting": "TRACP 5a [2]; pH 6.6", "value": 0.038}, {"measurement": "absorbance (enzymatic activity), sample TRACP 5a", "setting": "TRACP 5a [2]; pH 6.9", "value": 0.025}, {"measurement": "TRACP 5b/5a ratio", "setting": "TRACP 5b [3]", "value": 16}, {"measurement": "absorbance (enzymatic activity), sample TRACP 5b", "setting": "TRACP 5b [3]", "value": 0.401}]}
{"molecule": "O=[N+]([O-])c1ccc(OP(=O)(O)O)cc1", "note": "[PNPP, p-nitrophenylphosphoric acid, reference compound]", "values": [{"measurement": "TRACP 5b/5a ratio", "setting": "TRACP 5b [1]; [8]", "value": 10}, {"measurement": "absorbance (enzymatic activity), sample TRACP 5b", "setting": "TRACP 5b [1]; [8]", "value": 0.981}, {"measurement": "absorbance (enzymatic activity), sample TRACP 5a", "setting": "TRACP 5a [2]; pH 6.1, PNPP 8 mM, sodium acetate 0.1M, sodium tartrate 40 mM, 5a sample prepared to give one-tenth of 5b value", "value": 0.098}, {"measurement": "Km", "setting": "TRACP 5a [4]", "value": 1900, "unit": "µM"}, {"measurement": "Km", "setting": "TRACP 5b [5]", "value": 7000, "unit": "µM"}]}
{"molecule": "TRACP 5b (Homo sapiens) (protein) ATPALRFVAVGDWGGVPNAPFHTAREMANAKEIARTVQILGADFILSLGDNFYFTGVQDINDKRFQETFEDVFSDRSLRKVPWYVLAGNHDHLGNVSAQIAYSKISKRWNFPSPFYRLHFKIPQTNVSVAIFMLDTVTLCGNSDDFLSQQPERPRDVKLARTQLSWLKKQLAAAREDYVLVAGHYPVWSIAEHGPTHCLVKQLRPLLATYGVTAYLCGHDHNLQYLQDENGVGYVLSGAGNFMDPSKRHQRKVPNGYLRFHYGTEDSLGGFAYVEISSKEMTVTYIEASGKSLFKTRLPRRARP", "values": [{"measurement": "Km", "setting": "[6]", "value": 1500, "unit": "µM"}]}
{"molecule": "TRACP 5a (Homo sapiens) (protein, TRACP 5a derived from human serum and eluted from a HiTrap Heparin HP column; from tissue; host or cells: human serum, heparin column fraction) ATPALRFVAVGDWGGVPNAPFHTAREMANAKEIARTVQILGADFILSLGDNFYFTGVQDINDKRFQETFEDVFSDRSLRKVPWYVLAGNHDHLGNVSAQIAYSKISKRWNFPSPFYRLHFKIPQTNVSVAIFMLDTVTLCGNSDDFLSQQPERPRDVKLARTQLSWLKKQLAAAREDYVLVAGHYPVWSIAEHGPTHCLVKQLRPLLATYGVTAYLCGHDHNLQYLQDENGVGYVLSGAGNFMDPSKRHQRKVPNGYLRFHYGTEDSLGGFAYVEISSKEMTVTYIEASGKSLFKTRLPRRARP", "values": [{"measurement": "Km", "setting": "[7]", "value": 3500, "unit": "µM"}]}
